Results published in ChEMBL document CHEMBL1135887, “Substituted pentacyclic carbazolones as novel muscarinic allosteric agents: synthesis and structure-affinity and cooperativity relationships” (J Med Chem, 2002).

Legend:
[1] = biological target: T1, Muscarinic acetylcholine receptor M4 (Homo sapiens) (UniProt P08173); assay: Logarithm of affinity (log 1/M) at the muscarinic acetylcholine receptor M4 by using semiquantitative equilibrium and off-rate assay
T1 sequence (whole entry): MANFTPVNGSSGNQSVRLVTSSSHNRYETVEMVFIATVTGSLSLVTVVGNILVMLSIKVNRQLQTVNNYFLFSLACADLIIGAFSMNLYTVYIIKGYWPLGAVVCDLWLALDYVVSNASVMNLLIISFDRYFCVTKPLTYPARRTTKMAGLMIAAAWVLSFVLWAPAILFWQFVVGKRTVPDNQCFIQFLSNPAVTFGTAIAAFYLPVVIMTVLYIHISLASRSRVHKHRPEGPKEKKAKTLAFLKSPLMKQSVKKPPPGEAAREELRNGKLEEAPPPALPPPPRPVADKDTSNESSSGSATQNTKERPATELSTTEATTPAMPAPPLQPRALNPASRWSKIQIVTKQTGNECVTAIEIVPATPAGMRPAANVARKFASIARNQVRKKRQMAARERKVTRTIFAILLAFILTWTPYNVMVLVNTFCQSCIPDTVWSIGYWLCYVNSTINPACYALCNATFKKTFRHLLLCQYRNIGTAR

[2] = biological target: T2, Muscarinic acetylcholine receptor M1 (Homo sapiens) (UniProt P11229); assay: Logarithm of affinity (log 1/M) at the free muscarinic acetylcholine receptor M1 by using semiquantitative equilibrium and off-rate assay
T2 sequence (whole entry): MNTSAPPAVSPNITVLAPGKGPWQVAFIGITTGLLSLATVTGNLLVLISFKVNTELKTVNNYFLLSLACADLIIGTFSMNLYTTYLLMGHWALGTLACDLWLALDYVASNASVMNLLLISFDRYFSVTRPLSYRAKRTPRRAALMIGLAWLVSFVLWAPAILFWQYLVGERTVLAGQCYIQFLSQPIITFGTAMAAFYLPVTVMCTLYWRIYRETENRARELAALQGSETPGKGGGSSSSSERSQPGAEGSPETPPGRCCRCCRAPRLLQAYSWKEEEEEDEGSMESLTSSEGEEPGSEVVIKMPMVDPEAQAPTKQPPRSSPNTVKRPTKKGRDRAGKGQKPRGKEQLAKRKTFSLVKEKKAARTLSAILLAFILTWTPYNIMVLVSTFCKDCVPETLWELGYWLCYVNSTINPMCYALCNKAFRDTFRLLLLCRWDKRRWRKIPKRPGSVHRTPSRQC

[3] = biological target: T1, Muscarinic acetylcholine receptor M4 (Homo sapiens); assay: Subtype selectivity and the cooperativity with N-methyl Scopolamine (NMS) at Muscarinic acetylcholine receptor M4; Activity range is 0.81-1.19
[4] = biological target: T1, Muscarinic acetylcholine receptor M4 (Homo sapiens); assay: Logarithm of affinity (log 1/M) at the (N-methyl Scopolamine) NMS-liganded muscarinic acetylcholine receptor M4 by using semiquantitative equilibrium and off-rate assay
[5] = biological target: T3, Muscarinic acetylcholine receptor M2 (Homo sapiens) (UniProt P08172); assay: Subtype selectivity and the cooperativity with N-methyl Scopolamine (NMS) at Muscarinic acetylcholine receptor M2; Activity range is 0.2-0.8
T3 sequence (whole entry): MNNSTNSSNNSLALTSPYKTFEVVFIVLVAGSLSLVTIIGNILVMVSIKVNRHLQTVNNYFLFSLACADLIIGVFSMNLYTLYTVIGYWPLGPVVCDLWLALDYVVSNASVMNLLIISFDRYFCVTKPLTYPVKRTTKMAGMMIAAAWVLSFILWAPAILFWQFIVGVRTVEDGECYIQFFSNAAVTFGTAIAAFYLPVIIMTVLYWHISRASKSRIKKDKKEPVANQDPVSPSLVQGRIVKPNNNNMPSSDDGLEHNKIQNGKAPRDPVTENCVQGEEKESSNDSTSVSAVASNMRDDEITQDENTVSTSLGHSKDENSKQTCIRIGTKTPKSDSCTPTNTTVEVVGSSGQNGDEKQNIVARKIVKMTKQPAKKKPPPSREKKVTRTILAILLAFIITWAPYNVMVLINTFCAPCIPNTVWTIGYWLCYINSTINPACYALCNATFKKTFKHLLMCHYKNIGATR

[6] = biological target: T2, Muscarinic acetylcholine receptor M1 (Homo sapiens); assay: Subtype selectivity and the cooperativity with N-methyl Scopolamine (NMS) at Muscarinic acetylcholine receptor M1; Activity range is 0.2-0.8
[7] = biological target: T3, Muscarinic acetylcholine receptor M2 (Homo sapiens); assay: Logarithm of affinity (log 1/M) at the (N-methyl Scopolamine) NMS-liganded muscarinic acetylcholine receptor M2 by using semiquantitative equilibrium and off-rate assay
[8] = biological target: Muscarinic acetylcholine receptor M3 (Homo sapiens) (UniProt P20309); assay: Logarithm of affinity (log 1/M) at the muscarinic acetylcholine receptor M3 by using semiquantitative equilibrium and off-rate assay
[9] = biological target: Muscarinic acetylcholine receptor M3 (Homo sapiens) (UniProt P20309); assay: Subtype selectivity and the cooperativity with N-methyl Scopolamine (NMS) at muscarinic acetylcholine receptor M3; Activity range is 0.2-0.8
[10] = biological target: T2, Muscarinic acetylcholine receptor M1 (Homo sapiens); assay: Logarithm of affinity (log 1/M) at the (N-methyl Scopolamine) NMS-liganded muscarinic acetylcholine receptor M1 by using semiquantitative equilibrium and off-rate assay
[11] = biological target: T3, Muscarinic acetylcholine receptor M2 (Homo sapiens); assay: Logarithm of affinity (log 1/M) at the muscarinic acetylcholine receptor M2 by using semiquantitative equilibrium and off-rate assay
[12] = biological target: Muscarinic acetylcholine receptor M3 (Homo sapiens) (UniProt P20309); assay: Logarithm of affinity (log 1/M) at the (N-methyl Scopolamine) NMS-liganded muscarinic acetylcholine receptor M3 by using semiquantitative equilibrium and off-rate assay
[13] = biological target: Muscarinic acetylcholine receptor M3 (Homo sapiens) (UniProt P20309); assay: Subtype selectivity and the cooperativity with N-methyl Scopolamine (NMS) at Muscarinic acetylcholine receptor M3; activity range is 0.81-1.19.
[14] = biological target: T2, Muscarinic acetylcholine receptor M1 (Homo sapiens); assay: Subtype selectivity and the cooperativity with N-methyl Scopolamine (NMS) at Muscarinic acetylcholine receptor M1; activity value ranges from 0.81-1.19.
[15] = biological target: T3, Muscarinic acetylcholine receptor M2 (Homo sapiens); assay: Subtype selectivity and the cooperativity with N-methyl Scopolamine (NMS) at Muscarinic acetylcholine receptor M2
[16] = biological target: T1, Muscarinic acetylcholine receptor M4 (Homo sapiens); assay: Subtype selectivity and the cooperativity with N-methyl Scopolamine (NMS) at Muscarinic acetylcholine receptor M4
[17] = biological target: T1, Muscarinic acetylcholine receptor M4 (Homo sapiens); assay: Subtype selectivity and the cooperativity with N-methyl Scopolamine (NMS) at Muscarinic acetylcholine receptor M4; Activity range is 081-1.19
[18] = biological target: T3, Muscarinic acetylcholine receptor M2 (Homo sapiens); assay: Subtype selectivity and the cooperativity with N-methyl Scopolamine (NMS) at Muscarinic acetylcholine receptor M2; Activity range is 1.2-3
[19] = biological target: Muscarinic acetylcholine receptor M3 (Homo sapiens) (UniProt P20309); assay: Subtype selectivity and the cooperativity with N-methyl Scopolamine (NMS) at Muscarinic acetylcholine receptor M3; […]
[20] = biological target: T2, Muscarinic acetylcholine receptor M1 (Homo sapiens); assay: Subtype selectivity and the cooperativity with N-methyl Scopolamine (NMS) at Muscarinic acetylcholine receptor M1 Activity range is 0.2-0.8
[21] = biological target: T1, Muscarinic acetylcholine receptor M4 (Homo sapiens); assay: Subtype selectivity and cooperativity with N-methyl Scopolamine (NMS) at Muscarinic acetylcholine receptor M4; Activity range is 1.2-3
[22] = biological target: T2, Muscarinic acetylcholine receptor M1 (Homo sapiens); assay: Subtype selectivity and the cooperativity with N-methyl Scopolamine (NMS) at Muscarinic acetylcholine receptor M1; Activity range is 1.81-1.19
[23] = biological target: T3, Muscarinic acetylcholine receptor M2 (Homo sapiens); assay: Subtype selectivity and the cooperativity with N-methyl Scopolamine (NMS) at Muscarinic acetylcholine receptor M2; activity range is 1.2-3.
[24] = biological target: T2, Muscarinic acetylcholine receptor M1 (Homo sapiens); assay: Subtype selectivity and the cooperativity with N-methyl Scopolamine (NMS) at Muscarinic acetylcholine receptor M1
[25] = biological target: Muscarinic acetylcholine receptor M3 (Homo sapiens) (UniProt P20309); assay: Subtype selectivity and the cooperativity with N-methyl Scopolamine (NMS) at Muscarinic acetylcholine receptor M3
[26] = biological target: T1, Muscarinic acetylcholine receptor M4 (Homo sapiens); assay: Subtype selectivity and the cooperativity with N-methyl Scopolamine (NMS) at Muscarinic acetylcholine receptor M4; Activity range is 0.2-0.8

Sequence of Muscarinic acetylcholine receptor M3 (Homo sapiens) (P20309 whole entry, looked up): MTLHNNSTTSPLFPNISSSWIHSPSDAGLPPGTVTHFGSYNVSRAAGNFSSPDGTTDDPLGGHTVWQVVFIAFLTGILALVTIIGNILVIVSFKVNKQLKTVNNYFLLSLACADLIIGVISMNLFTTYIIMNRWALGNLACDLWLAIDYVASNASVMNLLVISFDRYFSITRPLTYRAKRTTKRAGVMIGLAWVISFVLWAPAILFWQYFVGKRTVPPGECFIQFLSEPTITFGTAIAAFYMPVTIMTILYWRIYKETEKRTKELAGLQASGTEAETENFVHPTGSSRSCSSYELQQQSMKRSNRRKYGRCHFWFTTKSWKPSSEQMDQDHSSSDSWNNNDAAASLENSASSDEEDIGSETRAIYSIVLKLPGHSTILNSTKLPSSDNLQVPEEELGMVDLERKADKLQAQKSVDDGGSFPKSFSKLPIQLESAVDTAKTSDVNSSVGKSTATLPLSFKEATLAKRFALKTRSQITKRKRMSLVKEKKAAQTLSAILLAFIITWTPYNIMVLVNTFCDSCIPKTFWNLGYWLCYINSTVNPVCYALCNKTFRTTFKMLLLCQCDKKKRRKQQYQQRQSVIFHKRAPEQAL

| SMILES | Log 1/M [1] | Log 1/M [2] | Log 1/M [4] | Cooperativity [6] | Log 1/M [7] | Log 1/M [8] | Cooperativity [9] | Log 1/M [10] | Log 1/M [11] | Log 1/M [12] | also measured |
| --- | --- | --- | --- | --- | --- | --- | --- | --- | --- | --- | --- |
| COC(=O)c1ccc2c(c1)c1c3c(cc4c1n2C(=O)CC4)CCNC3 | 5.84 | 6.19 | 5.91 | 0.8 | 6.03 | 5.55 | 0.8 | 5.85 | 6.14 | 4.88 | Cooperativity [3]: 1.19; Cooperativity [5]: 0.8 |
| COc1cc2c3c4c(c(COC(C)=O)c5c3n(c2cc1OC)C(=O)CC5)CNCC4 | 5.91 | 6.09 | 6.55 | – | 7.21 | 5.69 | – | 6.16 | 6.63 | 5.85 | Cooperativity [13]: 1.19; Cooperativity [14]: 1.19; Cooperativity [15]: > 3; Cooperativity [16]: > 3 |
| COc1ccc2c(c1)c1c3c(cc4c1n2C(=O)CC4)CCNC3 | 5.71 | 6.1 | 5.74 | 0.8 | 6.05 | 5.21 | 0.8 | 5.91 | 5.87 | 4.76 | Cooperativity [17]: 1.19; Cooperativity [18]: 3 |
| COc1cccc2c1c1c3c(cc4c1n2C(=O)CC4)CNCC3 | 6.25 | 6.5 | 6.26 | – | 6.7 | 5.58 | – | 5.95 | 6.43 | 5.52 | Cooperativity [3]: 1.19; Cooperativity [19]: 1.19; Cooperativity [18]: 3; Cooperativity [20]: 0.8 |
| O=C1CCc2cc3c(c4c5cc(O)ccc5n1c24)CNCC3 | 5.56 | 6.04 | 5.9 | – | 5.81 | 5.13 | – | 6.07 | 5.66 | 5.12 | Cooperativity [21]: 3; Cooperativity [22]: 1.19; Cooperativity [19]: 1.19; Cooperativity [23]: 3 |
| O=C1CCc2cc3c(c4c5cc(O)ccc5n1c24)CCNC3 | 5.65 | 5.79 | 6.05 | – | 6.25 | 4.89 | – | 6.07 | 5.61 | 5.47 | Cooperativity [24]: > 3; Cooperativity [25]: > 3; Cooperativity [15]: > 3; Cooperativity [16]: > 3 |
| COc1cc2c3c4c(cc5c3n(c2cc1OC)C(=O)CC5(C)C)CCNC4 | 6.67 | 6.88 | 6.37 | 0.8 | 6.7 | 6.03 | 0.8 | 6.29 | 7.08 | 5.47 | Cooperativity [5]: 0.8; Cooperativity [26]: 0.8 |
